These results are taken from patent US20080033008A1, “COMPOSITIONS AND METHODS FOR TREATING, CONTROLLING, REDUCING, OR AMELIORATING INFECTIONS AND SEQUELAE THEREOF” (priority 2006, published 2008).

The nature of data set [1]: Pupillary diameter measurement, rabbit paracentesis model. In kind it is in vivo. To be noted: raw data per eye; for Diameter (mm) T2: −5 min: 5 min before the first paracentesis; for Diameter (mm) T3: +115 min: 5 min before the second paracentesis; for Diameter (mm) T1: −180 min: −180 min (basal). The procedure: (§1) Each rabbit was placed in a restraint device and tagged with the alphanumeric code. The formulations were instilled (50 μl) into the conjunctival sac of both eyes 180, 120, 90 and 30 min before the first paracentesis; then 15, 30, 90 min after the first paracentesis. To perform the first paracentesis the animals were anaesthetized by intraveneous injection of 5 mg/kg Zoletil® (Virbac; 2.5 mg/kg tiletamine HCl and 2.5 mg/kg zolazepam HCl) and one drop of local anesthetic (Novesina®, Novartis) was administered to the eye. Anterior chamber paracentesis was performed with a 26 G needle attached to a tuberculin syringe; the needle was introduced into the anterior chamber through the cornea, taking care not to damage the tissues. Two hours after the first paracentesis, the animals were sacrificed with 0.4 ml Tanax® (Intervet International B.V.) and the second paracentesis was performed. About 100 μl of aqueous humor were removed at the second paracentesis. Aqueous humor was immediately split in four aliquots and stored at −80° C. until analysis. Then both eyes were enucleated and the iris-ciliary body was carefully excised, placed in polypropylene tubes, and stored at −80° C. until analysis.
The pupillary diameter of both eyes was measured with a Castroviejo caliper 180 min and 5 min before the first paracentesis and 5 min before the second paracentesis.

The nature of data set [2]: Clinical evaluation by slit lamp (clinical score), rabbit paracentesis model. In kind it is in vivo. The procedure:
as §1
The clinical evaluation of both eyes was performed by a slit lamp (4179-T; Sbisa, Italy) at 180 min and 5 min before the first paracentesis and 5 min before the second paracentesis. The clinical score was assigned according to the following scheme:
1=discrete dilatation of iris and conjunctival vessels
2=moderate dilatation of iris and conjunctival vessels
3=intense iridal hyperemia with flare in the anterior chamber
4=intense iridal hyperemia with flare in the anterior chamber and presence of fibrinous exudates.

The nature of data set [3]: Rabbit paracentesis model of ocular inflammation, overall conclusions. Format: in vivo. The note with it: 0.1%, 0.5% and 1% topical formulations; preliminary conclusions; listed as BOL-303242-X. The source says:
Inflammatory processes are multidimensional in origin, and are characterized by complex cellular and molecular events involving numerous components all of which have not been identified. Prostaglandins are among these mediators and play an important role in certain forms of ocular inflammation. Paracentesis of the anterior chamber in the rabbit eye induces inflammatory reaction due to the disruption of the blood-aqueous barrier (“BAB”), which is mediated, at least in part, by prostaglandin E2 [References 1-3 below]. Intraocular or topical administration of PGE2 disrupts the BAB. [Reference 4, below] The treatment schedule adopted in this study was similar to the clinical NSAIDs (Ocufen) treatment schedule used by surgeons for patients before cataract surgery.
(§2) Each rabbit was placed in a restraint device and tagged with the alphanumeric code. The formulations were instilled (50 μl) into the conjunctival sac of both eyes 180, 120, 90 and 30 min before the first paracentesis; then 15, 30, 90 min after the first paracentesis. […]
Pupillary diameter, PGE2, protein, PMN, and MPO were expressed as mean ±SEM. […] Clinical score was expressed as % of eyes and the statistical analysis was performed using Kruskal-Wallis followed by a Dunn post hoc test. […]

Data set [4] in a line: Very preliminary data (not shown) on side effects of corticosteroids.
For another data set, the system named is Myeloperoxidase (MPO). The experiment in a line: Myeloperoxidase (MPO) activity in iris-ciliary body, rabbit paracentesis model. Format: in vivo. The note with it: iris-ciliary body samples collected after the second paracentesis, raw data per eye (DX/SX). The procedure:
3.9 g of NaH2PO4 2H2O were dissolved in a volumetric flask to 500 ml with water. The pH was adjusted to pH=6 with 3N NaOH.
0.5 g of hexa-decyl-trimethyl-ammonium bromide was dissolved in 100 ml phosphate buffer.
The solution was prepared freshly. Ten microliters of H2O2 (30 wt. %) were diluted to 1 ml with water (solution A). 7.5 mg o-dianisidine 2HCl were dissolved in 45 ml of phosphate buffer and 75 μl of solution A were added.
as §2
The activity of MPO was measured as previously described by Williams et al. The iris-ciliary bodies were carefully dried, weighed and immersed in 1 ml of hexa-decyl-trimethyl-ammonium bromide solution. […] The change in absorbance at 460 nm was continuously monitored for 5 min by a spectrophotometer (UV/Vis Spectrometer Lambda EZ 201; Perkin Elmer). The slope of the line (Δ/min) was determined for each sample and used to calculate the number of units of MPO in the tissue as follows:
Values were expressed as units of MPO/g of tissue.

Data set [5] deals with neovascularization and angiogenesis. The note with it: X. Xin et al., J. Biol. Chem. 274:9116-9121 (1999); cited from earlier work.

Where “and” joins values, the source holds several entries; their conditions need not be identical. Equal entries are not always repeated. Entries after “also recorded” stand apart in the source; their conditions may differ.

For the compound `CC(C(=O)O)c1ccc(-c2ccccc2)c(F)c1` (centres unmarked) [F, flurbiprofen], in data set [1] (0.03% topical), the “Diameter (mm) T2: −5 min” value is 6.0 mm and 6.5 mm and 7.0 mm and 5.5 mm; the “Diameter (mm) T3: +115 min” value was 4.0 mm and 3.5 mm and 5.5 mm and 5.0 mm and 4.5 mm and 6.0 mm; the “Diameter (mm) T1: −180 min” value is 5.0 mm and 7.0 mm and 6.0 mm and 5.5 mm. The “Clinical score expressed as percentage of eyes, Score (%) 2” value in data set [2] (0.03% topical, +115 min) was 100%. In addition, the “Clinical score expressed as percentage of eyes, Score (%) 0” value in data set [2] (0.03% topical, −5 min) amounted to 100%. For the same compound, the “Clinical score expressed as percentage of eyes, Score (%) 0” value in data set [2] (0.03% topical, −180 min (basal)) is 100%.

Consider `Cc1ccc2c(NCC(O)(CC(C)(C)c3cc(F)cc4c3OCC4)C(F)(F)F)cccc2n1` (centres unmarked) [BOL], for which the “Diameter (mm) T2: −5 min” value was 6.5 mm and 7.0 mm and 7.5 mm in data set [1] (0.1% topical); 8.0 mm and 7.0 mm and 7.5 mm in data set [1] (0.5% topical); 6.0 mm and 6.5 mm and 7.0 mm in data set [1] (1% topical). Also, the “Diameter (mm) T3: +115 min” value was 5.0 mm and 6.0 mm and 6.5 mm and 5.5 mm in data set [1] (0.1% topical); 6.5 mm and 6.0 mm and 7.0 mm in data set [1] (0.5% topical); 5.5 mm and 5.0 mm and 6.0 mm in data set [1] (1% topical). Moreover, the “Diameter (mm) T1: −180 min” value in data set [1] (0.1% topical) is 6.5 mm and 7.0 mm and 7.5 mm; in data set [1] (0.5% topical), 8.0 mm and 7.0 mm and 7.5 mm; in data set [1] (1% topical) it was 6.0 mm and 6.5 mm. Further, the “Anti-inflammatory activity in the rabbit paracentesis model (conclusion)” value in data set [3] is “active in this model; also recorded: as effective an anti-inflammatory drug as some of the commonly accepted prior-art steroids or NSAID”. Moreover, the “Side effects of corticosteroids” value in data set [4] is “does not have some of the side effects of corticosteroids”. Moreover, the “Clinical score expressed as percentage of eyes, Score (%) 2” value worked out at 75% in data set [2] (0.1% topical, +115 min) and 100% in data set [2] (1% topical, +115 min). The “Clinical score expressed as percentage of eyes, Score (%) 3” value in data set [2] (0.1% topical, +115 min) worked out at 25%. The “Clinical score expressed as percentage of eyes, Score (%) 0” value in data set [2] (0.1% topical, −5 min) was determined as 100%; in data set [2] (0.1% topical, −180 min (basal)), 100%; in data set [2] (0.5% topical, −5 min), 100%; in data set [2] (0.5% topical, −180 min (basal)), 100%; in data set [2] (1% topical, −5 min), 100%; in data set [2] (1% topical, −180 min (basal)), 100%. Besides, the MPO is 1.00 Unit/g and 0.61 Unit/g and 0.65 Unit/g with Myeloperoxidase (MPO) (0.1% treatment); 0.85 Unit/g and 0.93 Unit/g and 0.79 Unit/g and 0.75 Unit/g and 0.74 Unit/g and 0.54 Unit/g and 0.58 Unit/g with Myeloperoxidase (MPO) (0.5% treatment).

For `C[C@@H]1C[C@H]2[C@@H]3CCC4=CC(=O)C=C[C@]4(C)[C@@]3(F)[C@@H](O)C[C@]2(C)[C@@]1(O)C(=O)CO` [Dex, dexamethasone], in data set [1] (0.1% topical), the “Diameter (mm) T2: −5 min” value was 5.5 mm and 6.5 mm and 6.0 mm and 7.0 mm and 7.5 mm; the “Diameter (mm) T3: +115 min” value is 5.5 mm and 6.0 mm and 4.5 mm and 5.0 mm and 6.5 mm; the “Diameter (mm) T1: −180 min” value was 6.0 mm and 7.0 mm and 5.5 mm and 6.5 mm. Besides, in data set [2] (0.1% topical, +115 min), the “Clinical score expressed as percentage of eyes, Score (%) 1” value stood at 75% and the “Clinical score expressed as percentage of eyes, Score (%) 3” value was 25%. Also, in data set [2] (0.1% topical, −5 min), the “Clinical score expressed as percentage of eyes, Score (%) 0” value was found to be 75% and the “Clinical score expressed as percentage of eyes, Score (%) 1” value is given as 25%. Besides, the “Clinical score expressed as percentage of eyes, Score (%) 0” value in data set [2] (0.1% topical, −180 min (basal)) came out at 100%.

Take `CCCCCC=CC=C1C(=O)C=C[C@@H]1CC=CCCCC(=O)O` [15-deoxy-Δ-12,14-prostaglandin J2]: the “Neovascularization and angiogenesis in the rat cornea” value in data set [5] is “inhibit neovascularization and angiogenesis”.

In the case of `CCOC(=O)O[C@]1(C(=O)OCCl)CC[C@H]2[C@@H]3CCC4=CC(=O)C=C[C@]4(C)[C@H]3[C@@H](O)C[C@@]21C` [LE, loteprednol etabonate], in data set [1] (0.5% topical), the “Diameter (mm) T2: −5 min” value was 6.0 mm and 6.5 mm; the “Diameter (mm) T3: +115 min” value was 4.5 mm and 5.0 mm and 5.5 mm and 6.0 mm; the “Diameter (mm) T1: −180 min” value is 6.0 mm and 6.5 mm. For the same compound, in data set [2] (0.5% topical, +115 min), the “Clinical score expressed as percentage of eyes, Score (%) 1” value was determined as 75% and the “Clinical score expressed as percentage of eyes, Score (%) 2” value turned out to be 25%. Besides, the “Clinical score expressed as percentage of eyes, Score (%) 0” value in data set [2] (0.5% topical, −5 min) is listed as 100%. Moreover, in data set [2] (0.5% topical, −180 min (basal)), the “Clinical score expressed as percentage of eyes, Score (%) 0” value came out at 100%.
